Experimental findings from patent US20240327361A1, “RADIOLABELED COMPOSITIONS AND METHODS OF USE THEREOF” (The Research Foundation for the State University of New York, priority 2021, published 2024) are described below.

The test system of one series is Class-I HDAC. Briefly: Cell-based deacetylase assay in HT-29 cells, class-I/IIb selective substrate Boc-Lys-Ac. Particulars: whole-cell assay, 200 μM Boc-Lys-Ac (class-I/IIb selective substrate), 3 h at 37° C. The procedure:
(§1) Cell-based deacetylase assay. The cell-based assay was conducted similar to the previous work (Lobera M 2013; Luckhurst C A 2019) Briefly, compounds were diluted in 5 uL DMSO (11-point concentration curve, 5% final DMSO) and were added to 96 wells with positive (5 μM Trichostatin A (TSA)) and negative control (5 uL DMSO) wells. HT-29 cells (obtained from ATCC) with the addition of either 100 μM Boc-Lys-TFA (class-IIa selective substrate) or 200 μM Boc-Lys-Ac (class-I/IIb selective substrate) were plated into 96 well plates at 200,000 cells/well in 45 uL cellular assay buffer (RPMI without phenol red, 0.1% Fetal Bovine Serum) and were incubated for 3 h at 37° C. The deacetylation achieved by the addition of 50 uL HDAC developer solution (2.5 mg/ml trypsin in DMEM without Fetal Bovine Serum and 10% tween 80) for a further 1 h to sensitize the substrate and to lyse the cells. Fluorescent counts were read with microplate reader at an excitation wavelength of 360 nm and detection of emitted light of 460 nm.

The next series deals with Class-lla HDAC. As to the kind of experiment: Cell-based deacetylase assay in HT-29 cells, class-IIa selective substrate Boc-Lys-TFA. Particulars: whole-cell assay, 100 μM Boc-Lys-TFA (class-IIa selective substrate), 3 h at 37° C. The procedure: as §1, with “The cell-based assay was conducted similar to the previous work (Lobera M 2013; Luckhurst C A 2019) Briefly, compounds were diluted in 5 uL DMSO (11-point concentration curve, 5% final DMSO) and were added to 96 wells with positive (5 μM Trichostatin A (TSA)) and negative control (5 uL DMSO) wells.” left out

For a further series, the system named is class-lla HDACs. As to the kind of experiment: In vivo microPET imaging of healthy rats (biodistribution, self-blocking with cold TMP195). More on the design: species or system Sprague Dawley rats. Particulars: rat brain PET. The procedure: Sprague Dawley rats (200-250 g, N=3,) were anesthetized with 3% isoflurane in oxygen and maintained at 2% isoflurane in oxygen throughout the imaging studies. Anesthetized rat was placed in the uPET (Siemens, Knoxville, TN) with the skull positioned in the center of the field of view. The tracer (500-700 μCi/animal) was administered intravenously into each Rat (n=3 per group) in a total volume 0.5-1.0 ml solution. Dynamic PET images were obtained over 60 minutes. Images were reconstructed with attenuation correction using an ordered subset expectation maximization (OSEM2D) algorithm with 16 subsets and 4 iterations.
Dynamic PET images were analyzed with Inveon Research Workplace 4.0 (Siemens, Knoxville, TN) and AMIDE software using manual segmentation of regions of interest (ROI), were drawn over ROI on the decay-corrected coronal images. The radioactivity accumulation (tracer uptake) within the ROI were obtained as percentage of the injected dose (ID) per gram of tissue (% ID/g). The time-activity curve (TAC) was generated from the region of interest (ROI) by plotting the radioactivity/cc vs time.
Anesthetized Sprague Dawley rats (200-250 g, N=6) were placed in the Inveon uPET (Siemens, Knoxville, TN) in the supine position with the skull positioned in the center of the field of view. [^18F]-NT160 was formulated in ethanol:polysorbate 80:saline (10:10:80%) and it was stable in this formulation at 37° C. at least for 4 hours. [^18F]-NT160 (18.5-25.9 MBq/animal) was administered via the tail-vein injection in a total volume 0.5-1.0 ml. Dynamic PET images were obtained over 60 minutes followed by CT imaging (15 min scan). Images were reconstructed with attenuation correction using an ordered subset expectation maximization (OSEM2D) algorithm with 16 subsets and 4 iterations. PET image analysis was performed using the AMIDE software by using manual segmentation of regions of interest (ROI), including: whole brain, cortex, hippocampus, thalamus, cerebellum, and brain stem. Rat Brain Atlas was used for alignment and identification of specific anatomical markers of the brain. The time-activity curve (TAC) was generated from the region of interest (ROI) by plotting the radioactivity/cc vs time. Levels of accumulation of the radiotracer in tissues were expressed as standard uptake values (SUV) that were calculated for the regions of interest (ROI) using the AMIDE software. The SUV is defined as the ratio of the tissue radioactivity concentration C (e.g. expressed as Bq/g tissue) at given time point post injection T, and the injected dose (e.g. in Bq, decay-corrected to the same time T), and normalized by the body weight in grams. GraphPad Prism (Graph Pad Software La Jolla, CA) was used for image data analysis. [^18F]-NT2-160 was also prepared by the same or similar procedure.

As a reminder, the IC50 is the concentration needed to halve the response being measured. Read a low IC50 as inhibition by little substance.

The structures appear in SMILES notation. A value given as a limit tells only on which side of the number the result lay.

In the series with Class-I HDAC, `O=C(NC1CCN(Cc2ccccc2)C1)c1ccc(-c2noc(C(F)(F)F)n2)cc1` (stereo not shown) [NT2-160] yielded an IC50 above 20 µM. Turning to `O=C(NC1CCN(Cc2ccc(F)cc2)C1)c1ccc(-c2noc(C(F)(F)F)n2)cc1F` (stereo not shown) [NT3-77C], the IC50 in the series with Class-lla HDAC was 0.173 µM; with Class-I HDAC, above 10 µM. Taken in the same sequence, the figures for `C[C@H](CN(C)Cc1ccc(F)cc1)NC(=O)c1ccc(-c2noc(C(F)(F)F)n2)cc1` [NT3-11D] were 0.059 ± 0.016 µM and above 15 µM. Taken in the same sequence, the figures for `C[C@H](CN(C)Cc1ccccc1)NC(=O)c1ccc(-c2noc(C(F)(F)Cl)n2)cc1` [NT3-89B] were above 2 µM and above 2 µM. Regarding `CN1CCC(NC(=O)c2ccc(-c3noc(C(F)(F)F)n3)cc2F)C1` (stereo not shown) [NT3-75], the IC50 in the series with Class-lla HDAC was 0.072 µM; with Class-I HDAC, above 3 µM. Taken in the same sequence, the figures for `CN(Cc1ccccc1)C(=O)CCNC(=O)c1cccc(-c2noc(C(F)(F)F)n2)c1` [NT-175] were above 50 µM and above 50 µM. For `CC(C)(CNC(=O)c1ccc(-c2noc(C(F)(F)F)n2)cc1)c1coc(-c2ccccc2)n1` [NT-134] the same measures were above 5 µM and above 15 µM.

As to `CN(Cc1ccccc1)C(=O)C(C)(C)CNC(=O)c1ccc(-c2noc(C(F)(F)F)n2)cc1` [NT3-119], the IC50 was 0.933 ± 0.26 µM in the series on Class-lla HDAC and above 15 µM in the series with Class-I HDAC.

Regarding `COC[C@@H](NC(=O)c1ccc(-c2noc(C(F)(F)F)n2)cc1)C(=O)NCc1ccc(F)cc1` [NT2-156], the IC50 is 0.233 ± 0.11 µM in the series with Class-lla HDAC and above 15 µM with Class-I HDAC. For `C[C@H](CN(C)Cc1ccccc1)NC(=O)c1ccc(-c2noc(C(F)(F)F)n2)cc1F` [NT3-76] the same measures were 0.032 µM and above 5 µM. As for `O=C(NC1CCCN(Cc2ccccc2)C1)c1ccc(-c2noc(C(F)(F)F)n2)cc1` (stereo not shown) [NT2-190], the IC50 is above 10 µM with Class-lla HDAC and above 50 µM in the series on Class-I HDAC. Taken in the same sequence, the figures for `O=C(NC1CCN(Cc2cccc(F)c2)C1)c1ccc(-c2noc(C(F)(F)F)n2)cc1F` (stereo not shown) [NT3-77B] were 0.195 µM and above 10 µM. Taken in the same sequence, the figures for `O=C(NC1CCN(Cc2ccccc2I)C1)c1ccc(-c2noc(C(F)(F)F)n2)cc1` (stereo not shown) [NT3-127B] were 1 µM and above 50 µM. Taken in the same sequence, the figures for `O=C(NC1CCN(c2ccccc2)C1)c1ccc(-c2noc(C(F)(F)F)n2)cc1` (stereo not shown) [NT2-174] were above 20 µM and above 50 µM. As for `CN(Cc1ccccc1)C(=O)C(C)(C)CNC(=O)c1cccc(-c2noc(C(F)(F)F)n2)c1` [NT3-118], the IC50 in the series with Class-lla HDAC and with Class-I HDAC was above 50 µM each time.

`COC[C@@H](NC(=O)c1ccc(-c2noc(C(F)(F)F)n2)cc1)C(=O)NCc1ccccc1` [NT-176]: the concentration for half-maximal inhibition (IC50) was 0.537 ± 0.15 µM with Class-lla HDAC and above 15 µM in the series on Class-I HDAC. For the molecule `O=C(NC1CCN(Cc2ccccc2)C1)c1ccc(-c2noc(C(F)(F)F)n2)cc1F` (stereo not shown) [NT3-77], the figures for the IC50 in the series on Class-lla HDAC and in the series with Class-I HDAC were 0.152 µM and above 10 µM, respectively. As for `CN(Cc1ccccc1)C(=O)CCNC(=O)c1ccc(-c2noc(C(F)(F)F)n2)cc1` [NT-174], the values for the IC50 in the series on Class-lla HDAC and in the series with Class-I HDAC were 0.905 ± 0.22 µM and above 15 µM, respectively. For `C[C@H](NC(=O)c1ccc(-c2noc(C(F)(F)F)n2)cc1)C(=O)N1CC[C@H](c2ccccc2)C1` [NT3-52B] the same measures were above 1 µM and above 50 µM. Taken in the same sequence, the figures for `O=C(NC1CCN(Cc2ccc(F)cc2)C1)c1ccc(-c2noc(C(F)(F)F)n2)cc1` (stereo not shown) [NT3-40] were 0.142 µM and above 20 µM. Taken in the same sequence, the figures for `CCN1CCC(NC(=O)c2ccc(-c3noc(C(F)(F)F)n3)cc2)C1` (stereo not shown) [NT3-83] were 0.091 µM and above 9 µM. Turning to `O=C(NC1CCN(Cc2ccccc2F)C1)c1ccc(-c2noc(C(F)(F)F)n2)cc1F` (stereo not shown) [NT3-77A], the IC50 in the series with Class-lla HDAC was 0.179 µM; in the series with Class-I HDAC, above 10 µM. For `C[C@@H](CN1CC[C@H](c2ccccc2)C1)NC(=O)c1ccc(-c2noc(C(F)(F)F)n2)cc1` [NT3-16D] the same measures were 0.005 µM and above 25 µM.

As for `O=C(NC1CCN(Cc2ccccc2F)C1)c1ccc(-c2noc(C(F)(F)F)n2)cc1` (stereo not shown) [NT3-132B], the figures for the IC50 with Class-lla HDAC and in the series on Class-I HDAC were 0.3 µM and above 50 µM, respectively.

Consider `O=C(NC1CCN(Cc2ccccc2)C1)c1ccc(-c2noc(C(F)(F)[18F])n2)cc1` (stereo not shown) [[^18F]-NT2-160], for which the “biodistribution / uptake in brain regions” value in the series on class-lla HDACs is recorded as “heterogenous”.

In the case of `C[C@@H](NC(=O)c1ccc(-c2noc(C(F)(F)F)n2)cc1)C(=O)NCc1ccccc1` [NT2-67], the IC50 in the series on Class-lla HDAC was 0.953 µM; with Class-I HDAC it was above 15 µM. For `CCN1CCC(NC(=O)c2ccc(-c3noc(C(F)(F)F)n3)cc2F)C1` (stereo not shown) [NT3-81] the same measures were 0.137 µM and above 5 µM. `CC(CN(C)Cc1ccccc1)NC(=O)c1ccc(-c2noc(C(F)(F)F)n2)cc1` (stereo not shown) [NT2-191] gave an IC50 with Class-I HDAC above 50 µM. Take `COC[C@@H](NC(=O)c1ccc(-c2noc(C(F)(F)F)n2)nc1)C(=O)NCc1ccccc1` [NT-192]: the figures for the IC50 in the series on Class-lla HDAC and in the series on Class-I HDAC were 1.71 ± 0.33 µM and above 15 µM, respectively. Taken in the same sequence, the figures for `O=C(NC1CCN(CCc2ccccc2F)C1)c1ccc(-c2noc(C(F)(F)F)n2)cc1` (stereo not shown) [NT3-102C] were above 10 µM and above 50 µM. Taken in the same sequence, the figures for `O=C(NC1CCN(CCc2ccccc2)C1)c1ccc(-c2noc(C(F)(F)F)n2)cc1` (stereo not shown) [NT3-106C] were above 10 µM and above 50 µM. For `CCN1CC[C@@H](NC(=O)c2ccc(-c3noc(C(F)(F)Cl)n3)cc2)C1` [NT3-92] the same measures were above 20 µM and above 50 µM.

On to `O=C(NC1CCN(CCF)C1)c1ccc(-c2noc(C(F)(F)F)n2)cc1` (stereo not shown) [NT3-123], for which the concentration for half-maximal inhibition (IC50) was above 10 µM in the series with Class-lla HDAC and above 50 µM with Class-I HDAC. Take `O=C(NC1CCN(Cc2ccc(I)cc2)C1)c1ccc(-c2noc(C(F)(F)F)n2)cc1` (stereo not shown) [NT3-39]: the values for the IC50 in the series on Class-lla HDAC and with Class-I HDAC were 0.295 µM and above 50 µM, respectively.

As to `CC(C)(NCc1ccccc1)C(=O)CNC(=O)c1ccc(-c2noc(C(F)(F)F)n2)cc1` [NT2-44], the IC50 was 0.768 ± 0.19 µM in the series with Class-lla HDAC and above 15 µM in the series with Class-I HDAC.
